According to ChEMBL document CHEMBL5678809, “Preclinical characterization of GLPG0634, a selective inhibitor of JAK1, for the treatment of inflammatory diseases” (J Immunol, 2013):
Active and inactive are the calls of the source. No cut-off for these calls is given here.

Key:
[1] = target: Activated CDC42 kinase 1 (Homo sapiens) (UniProt Q07912); experiment: Inhibition of ACK1 (unknown origin) at 1 uM relative to control
[2] = target: Cyclin-dependent kinase 2 (Homo sapiens, UniProt P24941); experiment: Inhibition of CDK2 (unknown origin)
[3] = target: Serine/threonine-protein kinase Chk1 (Homo sapiens) (UniProt O14757); experiment: Inhibition of CHK1 (unknown origin) at 1 uM relative to control
[4] = target: Epidermal growth factor receptor (Homo sapiens) (UniProt P00533); experiment: Inhibition of EGFR (unknown origin) at 1 uM relative to control
Sequence of Epidermal growth factor receptor (Homo sapiens) (P00533 whole entry): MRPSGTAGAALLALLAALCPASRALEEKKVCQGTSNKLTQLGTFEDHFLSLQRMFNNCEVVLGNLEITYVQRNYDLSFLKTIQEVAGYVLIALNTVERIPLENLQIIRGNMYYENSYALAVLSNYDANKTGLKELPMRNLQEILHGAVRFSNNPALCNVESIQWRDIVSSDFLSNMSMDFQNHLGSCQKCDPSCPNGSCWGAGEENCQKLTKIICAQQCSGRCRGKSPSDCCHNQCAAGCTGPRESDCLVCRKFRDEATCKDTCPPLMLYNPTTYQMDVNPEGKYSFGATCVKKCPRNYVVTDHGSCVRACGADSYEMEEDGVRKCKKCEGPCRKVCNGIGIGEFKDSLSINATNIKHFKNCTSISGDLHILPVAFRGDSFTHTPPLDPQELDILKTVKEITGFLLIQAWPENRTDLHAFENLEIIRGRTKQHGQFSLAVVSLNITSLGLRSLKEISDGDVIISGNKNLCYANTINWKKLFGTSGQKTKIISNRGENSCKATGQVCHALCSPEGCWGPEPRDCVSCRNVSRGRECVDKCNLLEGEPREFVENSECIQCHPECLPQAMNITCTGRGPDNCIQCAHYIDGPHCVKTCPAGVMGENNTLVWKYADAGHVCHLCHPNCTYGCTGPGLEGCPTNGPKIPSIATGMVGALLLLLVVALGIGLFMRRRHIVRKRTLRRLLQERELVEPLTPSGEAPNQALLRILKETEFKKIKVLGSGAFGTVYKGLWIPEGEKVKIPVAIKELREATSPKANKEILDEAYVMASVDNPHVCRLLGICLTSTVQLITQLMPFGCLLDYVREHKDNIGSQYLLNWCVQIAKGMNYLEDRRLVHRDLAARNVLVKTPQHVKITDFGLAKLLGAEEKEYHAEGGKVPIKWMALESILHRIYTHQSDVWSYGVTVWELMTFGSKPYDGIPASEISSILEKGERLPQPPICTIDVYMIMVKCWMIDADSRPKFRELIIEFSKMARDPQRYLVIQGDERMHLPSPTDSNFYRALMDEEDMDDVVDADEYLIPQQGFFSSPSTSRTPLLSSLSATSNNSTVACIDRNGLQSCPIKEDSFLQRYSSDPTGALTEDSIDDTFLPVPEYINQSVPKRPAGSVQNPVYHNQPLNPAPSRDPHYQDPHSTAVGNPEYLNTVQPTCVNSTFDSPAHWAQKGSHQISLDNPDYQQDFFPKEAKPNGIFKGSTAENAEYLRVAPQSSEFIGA

[5] = target: Receptor-type tyrosine-protein kinase FLT3 (Homo sapiens, UniProt P36888); experiment: Inhibition of Flt3 (unknown origin)
[6] = target: Tyrosine-protein kinase Fyn (Homo sapiens) (UniProt P06241); experiment: Inhibition of Fyn (unknown origin) at 1 uM relative to control
[7] = target: Serine/threonine-protein kinase haspin (Homo sapiens) (UniProt Q8TF76); experiment: Inhibition of Haspin (unknown origin) at 1 uM relative to control
[8] = target: Homeodomain-interacting protein kinase 1 (Homo sapiens) (UniProt Q86Z02); experiment: Inhibition of HIPK1 (unknown origin) at 1 uM relative to control
[9] = target: Interleukin-1 receptor-associated kinase 1 (Homo sapiens) (UniProt P51617); experiment: Inhibition of IRAK1 (unknown origin) at 1 uM relative to control
[10] = target: Mitogen-activated protein kinase 1 (Homo sapiens) (UniProt P28482); experiment: Inhibition of MAPK1 (unknown origin) at 1 uM relative to control
[11] = target: Mitogen-activated protein kinase 12 (Homo sapiens, UniProt P53778); experiment: Inhibition of MAPK12 (unknown origin)
Sequence of Mitogen-activated protein kinase 12 (P53778 whole entry): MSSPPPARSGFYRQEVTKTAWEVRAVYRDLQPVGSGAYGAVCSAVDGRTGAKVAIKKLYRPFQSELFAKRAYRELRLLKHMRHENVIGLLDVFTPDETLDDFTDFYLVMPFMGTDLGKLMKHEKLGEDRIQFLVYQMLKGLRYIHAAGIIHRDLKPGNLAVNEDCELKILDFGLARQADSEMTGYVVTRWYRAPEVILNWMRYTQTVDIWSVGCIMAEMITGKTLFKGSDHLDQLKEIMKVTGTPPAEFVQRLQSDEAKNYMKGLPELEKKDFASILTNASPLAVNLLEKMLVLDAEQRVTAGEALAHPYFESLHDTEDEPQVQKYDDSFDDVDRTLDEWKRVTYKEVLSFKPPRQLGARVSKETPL

[12] = target: MAP kinase-activated protein kinase 2 (Homo sapiens) (UniProt P49137); experiment: Inhibition of MAPK2 (unknown origin) at 1 uM relative to control
Sequence of MAP kinase-activated protein kinase 2 (Homo sapiens) (P49137 whole entry, looked up): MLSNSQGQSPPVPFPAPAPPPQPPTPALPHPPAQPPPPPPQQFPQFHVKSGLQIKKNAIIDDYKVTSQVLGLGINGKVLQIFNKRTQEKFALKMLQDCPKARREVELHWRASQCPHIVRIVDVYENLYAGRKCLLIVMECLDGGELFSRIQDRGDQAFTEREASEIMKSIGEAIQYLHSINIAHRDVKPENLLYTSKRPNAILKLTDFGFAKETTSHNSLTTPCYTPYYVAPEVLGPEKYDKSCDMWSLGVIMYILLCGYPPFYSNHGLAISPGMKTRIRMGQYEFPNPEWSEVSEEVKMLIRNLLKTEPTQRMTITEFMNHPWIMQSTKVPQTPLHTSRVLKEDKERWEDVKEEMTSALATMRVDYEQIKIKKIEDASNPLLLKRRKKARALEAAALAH

[13] = target: Tyrosine-protein kinase Mer (Homo sapiens, UniProt Q12866); experiment: Inhibition of Mer (unknown origin)
[14] = target: Dual specificity mitogen-activated protein kinase kinase 7 (Homo sapiens) (UniProt O14733); experiment: Inhibition of MKK7 (unknown origin) at 1 uM relative to control
[15] = target: Mitogen-activated protein kinase kinase kinase 9 (Homo sapiens) (UniProt P80192); experiment: Inhibition of MLK1 (unknown origin) at 1 uM relative to control
[16] = target: Ribosomal protein S6 kinase alpha-4 (Homo sapiens) (UniProt O75676); experiment: Inhibition of MSK2 (unknown origin) at 1 uM relative to control
Sequence of Ribosomal protein S6 kinase alpha-4 (Homo sapiens) (O75676 whole entry, looked up, the tested form may be a part): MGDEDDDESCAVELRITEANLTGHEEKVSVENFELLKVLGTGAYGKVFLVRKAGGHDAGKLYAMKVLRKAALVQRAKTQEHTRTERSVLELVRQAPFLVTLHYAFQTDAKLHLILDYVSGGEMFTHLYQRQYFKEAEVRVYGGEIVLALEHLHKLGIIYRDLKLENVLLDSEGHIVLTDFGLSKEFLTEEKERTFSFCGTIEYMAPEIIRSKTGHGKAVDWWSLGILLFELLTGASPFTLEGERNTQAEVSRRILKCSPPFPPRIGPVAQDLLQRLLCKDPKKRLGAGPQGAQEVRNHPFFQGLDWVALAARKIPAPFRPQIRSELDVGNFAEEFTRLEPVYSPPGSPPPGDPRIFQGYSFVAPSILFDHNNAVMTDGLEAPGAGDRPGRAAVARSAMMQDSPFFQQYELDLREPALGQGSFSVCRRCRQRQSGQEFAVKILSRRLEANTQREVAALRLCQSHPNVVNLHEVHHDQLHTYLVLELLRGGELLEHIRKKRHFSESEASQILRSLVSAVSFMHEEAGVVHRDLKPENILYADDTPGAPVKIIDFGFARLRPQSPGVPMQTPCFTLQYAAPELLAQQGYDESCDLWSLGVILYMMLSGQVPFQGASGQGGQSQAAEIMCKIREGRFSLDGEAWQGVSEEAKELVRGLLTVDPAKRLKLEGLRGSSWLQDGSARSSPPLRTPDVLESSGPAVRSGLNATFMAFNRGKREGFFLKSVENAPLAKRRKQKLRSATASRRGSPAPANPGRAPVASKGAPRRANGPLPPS

[17] = target: PAS domain-containing serine/threonine-protein kinase (Homo sapiens) (UniProt Q96RG2); experiment: Inhibition of PASK (unknown origin) at 1 uM relative to control
[18] = target: Serine/threonine-protein kinase pim-1 (Homo sapiens) (UniProt P11309); experiment: Inhibition of Pim-1 (unknown origin) at 1 uM relative to control
[19] = target: Protein kinase C beta type (Homo sapiens) (UniProt P05771); experiment: Inhibition of PKCb (unknown origin) at 1 uM relative to control
Sequence of Protein kinase C beta type (Homo sapiens) (P05771 2-671 limits assumed): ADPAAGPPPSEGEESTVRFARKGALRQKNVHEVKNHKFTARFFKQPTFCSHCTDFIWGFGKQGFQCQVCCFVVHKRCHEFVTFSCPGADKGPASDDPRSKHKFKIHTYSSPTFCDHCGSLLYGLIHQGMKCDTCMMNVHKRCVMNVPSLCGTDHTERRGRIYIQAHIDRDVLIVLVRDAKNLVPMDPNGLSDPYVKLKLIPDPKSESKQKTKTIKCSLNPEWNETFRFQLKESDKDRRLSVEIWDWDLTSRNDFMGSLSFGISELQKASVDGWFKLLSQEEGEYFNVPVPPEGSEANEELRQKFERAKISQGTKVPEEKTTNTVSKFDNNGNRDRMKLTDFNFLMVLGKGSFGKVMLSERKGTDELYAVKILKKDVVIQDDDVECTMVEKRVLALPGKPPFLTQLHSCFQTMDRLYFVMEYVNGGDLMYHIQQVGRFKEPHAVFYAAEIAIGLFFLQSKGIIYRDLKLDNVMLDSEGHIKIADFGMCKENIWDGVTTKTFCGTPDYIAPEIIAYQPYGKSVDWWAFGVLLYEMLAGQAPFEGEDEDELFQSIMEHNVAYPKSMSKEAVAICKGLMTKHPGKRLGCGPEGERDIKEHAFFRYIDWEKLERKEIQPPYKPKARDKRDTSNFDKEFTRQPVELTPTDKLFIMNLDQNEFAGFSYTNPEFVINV

[20] = target: Serine/threonine-protein kinase N2 (Homo sapiens) (UniProt Q16513); experiment: Inhibition of PRK2 (unknown origin) at 1 uM relative to control
[21] = target: Rho-associated protein kinase 1 (Homo sapiens, UniProt Q13464); experiment: Inhibition of ROCK1 (unknown origin)
[22] = target: Proto-oncogene tyrosine-protein kinase ROS (Homo sapiens) (UniProt P08922); experiment: Inhibition of Ros (unknown origin) at 1 uM relative to control
[23] = target: Ribosomal protein S6 kinase alpha-3 (Homo sapiens) (UniProt P51812); experiment: Inhibition of Rsk2 (unknown origin) at 1 uM relative to control
[24] = target: Serine/threonine-protein kinase Sgk1 (Homo sapiens) (UniProt O00141); experiment: Inhibition of SGK (unknown origin) at 1 uM relative to control
Sequence of Serine/threonine-protein kinase Sgk1 (Homo sapiens) (O00141 whole entry): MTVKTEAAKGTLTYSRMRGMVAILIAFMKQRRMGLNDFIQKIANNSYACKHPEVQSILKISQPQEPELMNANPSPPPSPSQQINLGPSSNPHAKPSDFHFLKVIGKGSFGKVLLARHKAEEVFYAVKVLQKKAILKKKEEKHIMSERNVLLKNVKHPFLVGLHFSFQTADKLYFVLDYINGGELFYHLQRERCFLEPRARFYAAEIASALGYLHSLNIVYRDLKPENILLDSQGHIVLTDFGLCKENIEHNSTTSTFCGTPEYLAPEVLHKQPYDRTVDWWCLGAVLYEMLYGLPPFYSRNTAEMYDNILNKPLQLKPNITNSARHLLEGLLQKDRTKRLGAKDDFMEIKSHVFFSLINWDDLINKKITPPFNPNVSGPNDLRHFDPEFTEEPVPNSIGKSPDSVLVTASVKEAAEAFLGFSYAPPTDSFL

[25] = target: Serine/threonine-protein kinase SIK1 (Homo sapiens) (UniProt P57059); experiment: Inhibition of SIK (unknown origin) at 1 uM relative to control
[26] = target: Serine/threonine-protein kinase TBK1 (Homo sapiens, UniProt Q9UHD2); experiment: Inhibition of TBK1 (unknown origin)
[27] = target: Testis-specific serine/threonine-protein kinase 2 (Homo sapiens) (UniProt Q96PF2); experiment: Inhibition of TSSK2 (unknown origin) at 1 uM relative to control
RPMI-8226 = experiment: Inhibition of human […] cell differentiation assessed as effect on IL-4 mRNA expression by RT-PCR analysis; assay type: functional, cell-based; settings: dose 0.1-10 µM
[28] = AUC (0 to 24 hrs) in CD-1 mouse at 5 mg/kg, po measured upto 24 hrs by LC-MS analysis; assay type: ADME, organism-based; settings: in vivo
[29] = Half life in CD-1 mouse at 1 mg/kg, iv measured upto 8 hrs by LC-MS analysis; assay type: ADME, organism-based; settings: in vivo
[30] = Cmax in Sprague-Dawley rat at 5 mg/kg, po measured upto 24 hrs by LC-MS analysis; assay type: ADME, organism-based; settings: in vivo
[31] = Tmax in Sprague-Dawley rat at 5 mg/kg, po measured upto 24 hrs by LC-MS analysis; assay type: ADME, organism-based; settings: in vivo
Rattus norvegicus = experiment: Antiarthritic activity against collagen-induced arthritis Dark Agouti rat model assessed as reduction in clinical score at 1 to 10 mg/kg, po measured after day 5; assay type: functional, organism-based; settings: dose 1-10 mg/kg, time 5.0 day
Mus musculus [32] = experiment: Antiarthritic activity against collagen-induced arthritis DBA/1J mouse model assessed as reduction in clinical score at 50 mg/kg, po administered twice daily for 14 days; assay type: functional, organism-based; settings: time 14.0 day
Mus musculus [33] = experiment: Antiarthritic activity against collagen-induced arthritis DBA/1J mouse model assessed as cartilage degradation by measuring lesion score in hind paw at 50 mg/kg, po administered twice daily for 14 days by histological analysis; assay type: functional, organism-based; settings: time 14.0 day
Mus musculus [34] = experiment: Antiarthritic activity against collagen-induced arthritis DBA/1J mouse model assessed as reduction in infiltration of CD3 positive T cells in paw at 50 mg/kg, po administered twice daily for 14 days by immunohistochemistry analysis; assay type: functional, organism-based; settings: T-cell, time 14.0 day
Mus musculus [35] = experiment: Antiarthritic activity against collagen-induced arthritis DBA/1J mouse model assessed as MCP-5 level in serum at 50 mg/kg, po measured for 4 hrs by luminex analysis (reference value: 62.8 +/- 12.4 ng/ml); assay type: functional
Mus musculus [36] = experiment: Antiarthritic activity against collagen-induced arthritis DBA/1J mouse model assessed as IL-1alpha level in serum at 50 mg/kg, po measured for 4 hrs by luminex analysis (reference value: 359 +/- 83.8 ng/ml); assay type: functional
Mus musculus [37] = experiment: Antiarthritic activity against collagen-induced arthritis DBA/1J mouse model assessed as LIF level in serum at 50 mg/kg, po measured for 4 hrs by luminex analysis (reference value: 696 +/- 108 ng/ml); assay type: functional
Mus musculus [38] = experiment: Antiarthritic activity against collagen-induced arthritis DBA/1J mouse model assessed as reduction in IL-6 level in serum at 50 mg/kg, po measured for 4 hrs by luminex analysis; assay type: functional, organism-based

Sequence of Activated CDC42 kinase 1 (Homo sapiens) (Q07912 whole entry, looked up): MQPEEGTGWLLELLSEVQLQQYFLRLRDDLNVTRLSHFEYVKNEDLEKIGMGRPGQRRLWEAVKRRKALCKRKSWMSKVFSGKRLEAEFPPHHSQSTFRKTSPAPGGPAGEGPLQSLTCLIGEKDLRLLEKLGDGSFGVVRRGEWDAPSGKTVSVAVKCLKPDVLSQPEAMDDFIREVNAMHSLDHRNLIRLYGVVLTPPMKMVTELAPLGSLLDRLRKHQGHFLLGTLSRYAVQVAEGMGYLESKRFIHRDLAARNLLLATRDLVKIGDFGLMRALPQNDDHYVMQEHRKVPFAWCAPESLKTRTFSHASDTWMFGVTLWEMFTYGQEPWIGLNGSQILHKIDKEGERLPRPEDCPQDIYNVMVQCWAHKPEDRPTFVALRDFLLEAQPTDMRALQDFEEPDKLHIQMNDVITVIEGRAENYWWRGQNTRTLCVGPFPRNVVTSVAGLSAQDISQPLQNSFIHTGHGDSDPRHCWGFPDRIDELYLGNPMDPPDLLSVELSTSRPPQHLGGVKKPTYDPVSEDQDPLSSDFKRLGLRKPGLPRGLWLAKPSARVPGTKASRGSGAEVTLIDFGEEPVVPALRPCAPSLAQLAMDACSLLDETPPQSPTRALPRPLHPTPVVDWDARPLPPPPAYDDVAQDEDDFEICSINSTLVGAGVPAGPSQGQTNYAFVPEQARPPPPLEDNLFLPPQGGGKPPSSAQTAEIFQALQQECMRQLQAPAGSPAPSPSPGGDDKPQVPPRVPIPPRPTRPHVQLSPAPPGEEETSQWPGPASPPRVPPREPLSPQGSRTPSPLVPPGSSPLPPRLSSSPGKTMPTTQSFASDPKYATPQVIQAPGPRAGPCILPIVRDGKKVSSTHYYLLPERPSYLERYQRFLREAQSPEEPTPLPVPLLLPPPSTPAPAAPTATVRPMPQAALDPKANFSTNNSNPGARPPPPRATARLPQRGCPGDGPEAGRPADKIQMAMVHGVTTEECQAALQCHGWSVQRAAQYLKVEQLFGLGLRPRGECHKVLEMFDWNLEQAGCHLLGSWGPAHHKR

O=C(Nc1nc2cccc(-c3ccc(CN4CCS(=O)(=O)CC4)cc3)n2n1)C1CC1 [FILGOTINIB]
inhibition [1]: 17%
IC50 [2]: > 10000 nM
inhibition [3]: 10%
inhibition [4]: -5%
IC50 [5]: 338 nM
inhibition [6]: 0%
inhibition [7]: -6%
inhibition [8]: -8%
inhibition [9]: 2%
inhibition [10]: 1%
IC50 [11]: > 10000 nM
inhibition [12]: 0%
IC50 [13]: 1270 nM
inhibition [14]: 13%
inhibition [15]: 1%
inhibition [16]: 7%
inhibition [17]: 1%
inhibition [18]: -7%
inhibition [19]: -2%
inhibition [20]: -8%
IC50 [21]: > 10000 nM
inhibition [22]: -9%
inhibition [23]: 1%
inhibition [24]: 7%
inhibition [25]: 1%
IC50 [26]: 1790 nM
inhibition [27]: -5%
inhibition (RPMI-8226): Dose-Dependent Effect
AUC [28]: 1890 ng·h/mL
half-life [29]: 2.5 h
Cmax [30]: 310 ng/mL
Tmax [31]: 2.2 h
Activity (Rattus norvegicus): Active
Activity (Mus musculus [32]): Active
Activity (Mus musculus [33]): Active
Activity (Mus musculus [34]): Active
Activity (Mus musculus [35]): 36.4 ng/mL
Activity (Mus musculus [36]): 123 ng/mL
Activity (Mus musculus [37]): 743.8 ng/mL
Activity (Mus musculus [38]): Active
